Experimental findings from article PMC7073229, “Novel Quinoline Compounds Active in Cancer Cells through Coupled DNA Methyltransferase Inhibition and Degradation” (Cancers, 2020) are described below.

Assay in all cases: Kinase inhibitory assay (panel)
Assay type in all cases: biochemical
Settings in all cases: read-out: % inhibition at 10 µM

One assay deals with CHK1 (h) (Homo sapiens, UniProt O14757). The procedure: (§1) Experimental procedure of kinase inhibitory assays
(§2) The test compound, reference compound or water (control) were mixed with the enzyme (for the exact amount see table below) in the appropriate buffer. Thereafter, the reaction was initiated by adding the required amount of the appropriate substrate and of ATP, and the mixture is incubated at room temperature (variable reaction time, see table below). For control basal measurements, the enzyme was omitted from the reaction mixture. Following incubation, the reaction was stopped by adding 13 mM
(§3) EDTA. After 5 min, the proper antibody labelled with europium chelate was added. After 60 more min, the fluorescence transfer was measured at λex=337 nm, λem=620 nm and λem=665 nm using a microplate reader (Envision, Perkin Elmer). The enzyme activity was determined by d ividing the signal measured at 665 nm by that measured at 620 nm (ratio). The results are expressed as a percent inhibition of the control enzyme activity. The standard inhibitory reference compound is staurosporine when not differently indicated (see tabl e below), which has been tested in each experiment at several concentrations to obtain an inhibition curve from which its IC 50 value is calculated.
(§4) • Assay volume and format: 10 µL in 384-well plate
(§5) • Compound addition: [100x] solution in solvent then [5x] solution in water • Maximum tolerable DMSO concentration: 1%

The target of the next assay is FGFR2 kinase (h) (Homo sapiens, UniProt P21802). The procedure:
as §1, §2, §3, §4, §5

In a further assay the target is p38alpha kinase (h) (Homo sapiens, UniProt Q16539). The procedure:
as §1, §2, §3, §4, §5

The target of a further assay is NEK2 (h) (Homo sapiens, UniProt P51955). The procedure:
as §1, §2, §3, §4, §5

The target in the next assay is JNK1 (h) (Homo sapiens, UniProt P45983). The procedure:
as §1, §2, §3, §4, §5

The target of a further assay is Lck kinase (h) (Homo sapiens, UniProt P06239). The procedure: as §1, §2, §3, §4, §5
Sequence of Lck kinase (h) (P06239 whole entry): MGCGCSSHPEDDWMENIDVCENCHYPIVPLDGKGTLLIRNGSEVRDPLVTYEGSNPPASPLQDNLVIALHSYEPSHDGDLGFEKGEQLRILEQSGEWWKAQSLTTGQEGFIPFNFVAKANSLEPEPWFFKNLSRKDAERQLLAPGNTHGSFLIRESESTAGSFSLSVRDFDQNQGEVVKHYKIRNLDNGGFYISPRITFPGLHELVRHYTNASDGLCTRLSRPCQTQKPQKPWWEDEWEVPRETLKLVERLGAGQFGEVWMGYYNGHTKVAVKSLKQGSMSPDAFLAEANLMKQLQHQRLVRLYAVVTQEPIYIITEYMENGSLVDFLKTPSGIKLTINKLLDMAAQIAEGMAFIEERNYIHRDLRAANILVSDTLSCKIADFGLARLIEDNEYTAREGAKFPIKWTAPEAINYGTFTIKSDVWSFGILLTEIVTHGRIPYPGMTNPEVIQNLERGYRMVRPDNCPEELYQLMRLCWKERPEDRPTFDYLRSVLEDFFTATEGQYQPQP
The target in a further assay is ROCK1 (h) (Homo sapiens, UniProt Q13464). The procedure: as §1, §2, §3, §4, §5
Sequence of ROCK1 (h) (Q13464 whole entry): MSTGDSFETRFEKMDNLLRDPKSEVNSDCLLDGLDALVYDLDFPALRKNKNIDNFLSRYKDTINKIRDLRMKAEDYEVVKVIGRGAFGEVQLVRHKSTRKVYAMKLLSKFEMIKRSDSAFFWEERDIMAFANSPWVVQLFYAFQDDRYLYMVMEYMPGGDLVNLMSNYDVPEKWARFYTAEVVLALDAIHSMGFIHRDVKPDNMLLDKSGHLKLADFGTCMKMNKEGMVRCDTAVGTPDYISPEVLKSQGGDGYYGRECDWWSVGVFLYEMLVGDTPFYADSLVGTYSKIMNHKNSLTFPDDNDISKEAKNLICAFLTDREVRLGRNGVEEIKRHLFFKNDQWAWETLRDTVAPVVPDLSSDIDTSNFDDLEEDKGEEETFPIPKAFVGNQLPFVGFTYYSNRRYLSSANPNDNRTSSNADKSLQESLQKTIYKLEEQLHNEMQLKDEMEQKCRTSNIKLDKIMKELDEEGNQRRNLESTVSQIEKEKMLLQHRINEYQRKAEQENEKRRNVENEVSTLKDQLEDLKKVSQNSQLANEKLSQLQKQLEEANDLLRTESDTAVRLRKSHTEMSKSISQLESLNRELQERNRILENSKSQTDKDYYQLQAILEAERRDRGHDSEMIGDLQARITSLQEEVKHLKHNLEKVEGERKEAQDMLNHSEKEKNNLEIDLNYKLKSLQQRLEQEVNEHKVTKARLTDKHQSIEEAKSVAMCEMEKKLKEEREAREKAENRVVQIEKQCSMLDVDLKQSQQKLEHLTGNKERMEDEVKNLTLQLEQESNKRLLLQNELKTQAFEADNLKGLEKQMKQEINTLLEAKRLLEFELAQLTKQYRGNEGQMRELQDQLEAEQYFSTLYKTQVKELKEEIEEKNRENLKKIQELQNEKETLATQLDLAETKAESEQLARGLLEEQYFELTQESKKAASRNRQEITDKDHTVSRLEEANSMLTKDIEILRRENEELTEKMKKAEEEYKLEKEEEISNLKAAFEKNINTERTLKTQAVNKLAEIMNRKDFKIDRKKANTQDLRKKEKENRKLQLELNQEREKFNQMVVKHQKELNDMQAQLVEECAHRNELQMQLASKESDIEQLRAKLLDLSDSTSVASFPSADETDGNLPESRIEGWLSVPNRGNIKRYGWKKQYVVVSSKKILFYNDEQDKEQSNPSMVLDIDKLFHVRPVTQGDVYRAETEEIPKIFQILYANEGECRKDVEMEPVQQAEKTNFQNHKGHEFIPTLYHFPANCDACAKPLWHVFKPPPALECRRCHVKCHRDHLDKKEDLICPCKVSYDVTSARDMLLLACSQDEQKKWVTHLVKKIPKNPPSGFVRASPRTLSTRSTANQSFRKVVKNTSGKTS
In another assay the target is PAK2 (h) (Homo sapiens, UniProt Q13177). The procedure:
as §1, §2, §3, §4, §5

In another assay the target is MNK2 (h) (Homo sapiens, UniProt Q9HBH9). The procedure: as §1, §2, §3, §4, §5
The target of another assay is SGK1 (h) (Homo sapiens, UniProt O00141). The procedure: as §1, §2, §3, §4, §5
Sequence of SGK1 (h) (O00141 whole entry): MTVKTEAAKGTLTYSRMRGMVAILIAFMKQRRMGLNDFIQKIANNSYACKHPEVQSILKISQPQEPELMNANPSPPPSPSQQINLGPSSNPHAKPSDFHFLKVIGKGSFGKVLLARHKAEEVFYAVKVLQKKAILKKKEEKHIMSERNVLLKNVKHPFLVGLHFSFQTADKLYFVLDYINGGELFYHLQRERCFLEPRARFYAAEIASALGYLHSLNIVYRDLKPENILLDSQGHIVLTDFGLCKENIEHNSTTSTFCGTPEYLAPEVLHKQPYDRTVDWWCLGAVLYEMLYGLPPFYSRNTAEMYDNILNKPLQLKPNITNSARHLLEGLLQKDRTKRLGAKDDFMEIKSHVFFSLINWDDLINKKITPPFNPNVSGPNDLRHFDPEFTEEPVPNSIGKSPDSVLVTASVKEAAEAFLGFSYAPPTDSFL
Another assay concerns the target EphA2 kinase (h) (Homo sapiens, UniProt P29317). The procedure: as §1, §2, §3, §4, §5
Another assay deals with JAK3 (h) (Homo sapiens, UniProt P52333). The procedure:
as §1, §2, §3, §4, §5

Broadly, the inhibition is the relative decrease from the control value, in per cent.

Sequence of NEK2 (h) (P51955 whole entry): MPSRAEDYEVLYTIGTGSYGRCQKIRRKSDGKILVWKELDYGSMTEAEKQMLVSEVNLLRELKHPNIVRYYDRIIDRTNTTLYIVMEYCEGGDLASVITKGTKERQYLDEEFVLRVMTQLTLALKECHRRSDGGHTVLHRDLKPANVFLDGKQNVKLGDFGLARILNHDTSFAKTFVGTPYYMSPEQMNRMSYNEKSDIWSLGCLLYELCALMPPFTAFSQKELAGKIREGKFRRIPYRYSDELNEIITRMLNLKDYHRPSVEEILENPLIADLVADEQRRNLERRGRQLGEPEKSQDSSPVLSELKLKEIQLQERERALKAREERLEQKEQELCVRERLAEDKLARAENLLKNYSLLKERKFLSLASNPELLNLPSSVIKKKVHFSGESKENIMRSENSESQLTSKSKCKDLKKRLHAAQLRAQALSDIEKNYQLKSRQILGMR
Sequence of JNK1 (h) (P45983 whole entry): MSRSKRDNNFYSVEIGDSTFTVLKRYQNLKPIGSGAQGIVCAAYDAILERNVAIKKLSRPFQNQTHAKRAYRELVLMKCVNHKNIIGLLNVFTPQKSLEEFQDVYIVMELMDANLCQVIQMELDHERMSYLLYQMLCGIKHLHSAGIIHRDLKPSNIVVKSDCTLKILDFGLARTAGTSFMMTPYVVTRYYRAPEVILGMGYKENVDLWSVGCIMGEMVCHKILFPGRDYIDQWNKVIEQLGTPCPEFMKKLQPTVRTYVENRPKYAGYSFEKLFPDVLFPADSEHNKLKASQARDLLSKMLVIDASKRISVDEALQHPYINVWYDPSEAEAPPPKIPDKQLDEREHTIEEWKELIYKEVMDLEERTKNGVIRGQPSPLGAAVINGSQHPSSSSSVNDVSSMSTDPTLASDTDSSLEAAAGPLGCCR
Sequence of JAK3 (h) (P52333 whole entry): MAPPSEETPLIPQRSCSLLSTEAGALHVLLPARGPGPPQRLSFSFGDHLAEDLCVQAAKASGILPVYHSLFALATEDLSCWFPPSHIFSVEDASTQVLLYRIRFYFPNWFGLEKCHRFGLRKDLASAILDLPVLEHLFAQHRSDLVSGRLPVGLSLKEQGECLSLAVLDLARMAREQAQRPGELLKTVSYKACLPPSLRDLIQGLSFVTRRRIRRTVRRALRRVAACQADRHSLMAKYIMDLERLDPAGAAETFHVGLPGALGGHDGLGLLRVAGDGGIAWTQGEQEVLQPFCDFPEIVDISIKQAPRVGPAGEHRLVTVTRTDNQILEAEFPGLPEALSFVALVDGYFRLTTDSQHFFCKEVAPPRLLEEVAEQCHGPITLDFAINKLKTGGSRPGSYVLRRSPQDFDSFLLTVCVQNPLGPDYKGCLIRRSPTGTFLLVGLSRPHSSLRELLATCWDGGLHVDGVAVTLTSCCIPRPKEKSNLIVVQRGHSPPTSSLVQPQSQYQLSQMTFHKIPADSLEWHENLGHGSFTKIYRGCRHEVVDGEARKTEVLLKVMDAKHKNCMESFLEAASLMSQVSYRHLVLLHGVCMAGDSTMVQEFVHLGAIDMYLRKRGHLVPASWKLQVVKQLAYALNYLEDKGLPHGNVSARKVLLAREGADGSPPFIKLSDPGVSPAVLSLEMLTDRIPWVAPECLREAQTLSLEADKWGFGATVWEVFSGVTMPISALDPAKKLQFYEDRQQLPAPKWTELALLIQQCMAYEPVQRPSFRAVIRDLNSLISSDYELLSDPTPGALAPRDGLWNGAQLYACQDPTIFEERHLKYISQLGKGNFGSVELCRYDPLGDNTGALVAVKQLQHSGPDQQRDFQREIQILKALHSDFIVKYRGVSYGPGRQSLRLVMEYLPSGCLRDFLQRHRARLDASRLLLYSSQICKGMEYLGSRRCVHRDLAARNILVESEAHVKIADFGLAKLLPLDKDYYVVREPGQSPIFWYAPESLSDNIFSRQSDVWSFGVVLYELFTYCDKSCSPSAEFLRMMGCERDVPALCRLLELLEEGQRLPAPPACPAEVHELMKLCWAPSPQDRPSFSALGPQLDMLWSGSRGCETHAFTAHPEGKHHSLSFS
Sequence of p38alpha kinase (h) (Q16539 whole entry): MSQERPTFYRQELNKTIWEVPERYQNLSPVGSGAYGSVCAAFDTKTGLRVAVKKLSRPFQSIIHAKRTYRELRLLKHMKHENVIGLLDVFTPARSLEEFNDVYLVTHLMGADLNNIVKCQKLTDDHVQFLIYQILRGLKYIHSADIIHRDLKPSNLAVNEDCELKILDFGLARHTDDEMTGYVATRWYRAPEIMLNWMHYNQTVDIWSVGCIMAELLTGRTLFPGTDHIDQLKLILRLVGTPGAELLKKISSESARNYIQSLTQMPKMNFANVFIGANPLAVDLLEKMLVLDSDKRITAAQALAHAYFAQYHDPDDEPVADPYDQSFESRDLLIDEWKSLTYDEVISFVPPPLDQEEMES

Turning to `O=C(Nc1ccc(Nc2ccnc3ccccc23)cc1)c1cccc(Nc2ccnc3ccccc23)c1` [Compound 2a], the inhibition at 10 µM at CHK1 (h) was 16%; at FGFR2 kinase (h), 1%; at p38alpha kinase (h), -64%; at NEK2 (h), -72%; at JNK1 (h), -91%; at Lck kinase (h), 23%. Moreover, the inhibition at 10 µM at ROCK1 (h) was -61%; on PAK2 (h), -150%; at MNK2 (h), -6%; at SGK1 (h), 28%; at EphA2 kinase (h), -184%; at JAK3 (h), -100%.
